In ChEMBL document CHEMBL4665826, “Design, synthesis and biological evaluation of novel heptamethine cyanine dye-erlotinib conjugates as antitumor agents” (Bioorg Med Chem Lett, 2020):

How the values were obtained:
A549 [1] = experiment: Antiproliferative activity against human A549 cells assessed as reduction in cell growth by MTT assay; type: functional, cell-based
NCI-H1299 = experiment: Antiproliferative activity against human NCI-H1299 cells assessed as reduction in cell growth by MTT assay; type: functional, cell-based
NCI-H460 = experiment: Antiproliferative activity against human NCI-H460 cells assessed as reduction in cell growth by MTT assay; type: functional, cell-based
MDA-MB-231 = experiment: Antiproliferative activity against human MDA-MB-231 cells assessed as reduction in cell growth by MTT assay; type: functional, cell-based
[2] = target: T1, Epidermal growth factor receptor (Homo sapiens, UniProt P00533); experiment: Potency index, ratio of erlotinib IC50 to test compound IC50 for EGFR in human A549 cells measured after 30 hrs by ELISA; type: cell-based
T1 sequence (P00533 whole entry): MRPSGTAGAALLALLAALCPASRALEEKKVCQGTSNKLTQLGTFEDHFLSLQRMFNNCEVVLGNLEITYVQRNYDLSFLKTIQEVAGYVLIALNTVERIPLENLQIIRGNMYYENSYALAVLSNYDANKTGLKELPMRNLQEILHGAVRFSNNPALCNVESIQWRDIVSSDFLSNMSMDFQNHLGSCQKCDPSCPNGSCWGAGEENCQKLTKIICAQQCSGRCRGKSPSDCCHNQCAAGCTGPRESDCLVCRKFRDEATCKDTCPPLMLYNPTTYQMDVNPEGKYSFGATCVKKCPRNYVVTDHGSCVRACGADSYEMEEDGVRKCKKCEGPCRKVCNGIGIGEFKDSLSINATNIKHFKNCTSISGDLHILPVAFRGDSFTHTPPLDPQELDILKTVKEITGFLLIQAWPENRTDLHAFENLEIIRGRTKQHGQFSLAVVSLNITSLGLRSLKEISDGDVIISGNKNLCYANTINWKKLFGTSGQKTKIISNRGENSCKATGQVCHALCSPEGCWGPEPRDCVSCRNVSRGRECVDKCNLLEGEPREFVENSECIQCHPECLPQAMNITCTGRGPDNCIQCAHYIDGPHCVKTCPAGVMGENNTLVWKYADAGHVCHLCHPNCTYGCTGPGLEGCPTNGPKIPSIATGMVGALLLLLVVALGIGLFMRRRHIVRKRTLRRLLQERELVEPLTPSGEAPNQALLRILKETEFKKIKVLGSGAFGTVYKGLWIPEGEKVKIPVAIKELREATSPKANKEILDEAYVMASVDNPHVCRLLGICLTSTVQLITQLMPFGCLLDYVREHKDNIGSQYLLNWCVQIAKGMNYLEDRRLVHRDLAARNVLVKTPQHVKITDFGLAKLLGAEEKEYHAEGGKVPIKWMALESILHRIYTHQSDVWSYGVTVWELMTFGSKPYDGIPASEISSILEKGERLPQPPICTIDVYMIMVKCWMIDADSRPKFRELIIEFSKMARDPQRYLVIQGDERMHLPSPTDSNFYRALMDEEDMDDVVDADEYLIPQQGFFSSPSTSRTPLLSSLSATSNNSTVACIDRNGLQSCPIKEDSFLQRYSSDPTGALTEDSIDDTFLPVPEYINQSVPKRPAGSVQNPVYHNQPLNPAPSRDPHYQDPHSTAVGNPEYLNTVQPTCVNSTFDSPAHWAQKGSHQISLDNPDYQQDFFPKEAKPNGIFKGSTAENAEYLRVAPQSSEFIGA

[3] = target: T1, Epidermal growth factor receptor; experiment: Inhibition of EGFR in human A549 cells measured after 30 hrs by ELISA; type: cell-based
MCF-10A = experiment: Cytotoxicity against human MCF-10A cells assessed as reduction in cell growth by MTT assay; type: cell-based
A549 [4] = experiment: Potency index, ratio of erlotinib IC50 to test compound IC50 for antiproliferative activity against human A549 cells assessed as reduction in cell growth by MTT assay; type: functional

Row | SMILES | IC50 (A549 [1]) | IC50 (NCI-H1299) | IC50 (NCI-H460) | IC50 (MDA-MB-231) | Ratio IC50 [2] | IC50 [3] | IC50 (MCF-10A) | Ratio IC50 (A549 [4])
1 | C#Cc1cccc(Nc2ncnc3cc(OCCOC)c(OCCOC(=O)CCCCC[N+]4=C(/C=C/C=C/C=C/C=C5/N(CCCCCC(=O)O)c6ccccc6C5(C)C)C(C)(C)c5ccccc54)cc23)c1 | 1130 nM | 5140 nM | 7250 nM | 1620 nM | – | – | – | –
2 | C#Cc1cccc(Nc2ncnc3cc(OCCOC)c(OCCOC(=O)CCCCC[N+]4=C(/C=C/C=C/C=C/C=C5/N(CCCC)c6ccc(OC)cc6C5(C)C)C(C)(C)c5cc(C(F)(F)F)ccc54)cc23)c1.[Br-] | 177 nM | 79 nM | 301 nM | 311 nM | 14 | 124 nM | 38.6 µM | 14
3 | C#Cc1cccc(Nc2ncnc3cc(OCCOC)c(OCCOC(=O)CCCCC[N+]4=C(/C=C/C=C/C=C/C=C5/N(CCCC)c6ccccc6C5(C)C)C(C)(C)c5cc(Br)ccc54)cc23)c1 | 579 nM | 693 nM | 655 nM | < 125 nM | – | – | – | –
4 | C#Cc1cccc(Nc2ncnc3cc(OCCOC)c(OCCOC(=O)CCCCC[N+]4=C(/C=C/C=C/C=C/C=C5/N(CCCC)c6ccccc6C5(C)C)C(C)(C)c5cc(C)ccc54)cc23)c1 | 2070 nM | 1740 nM | 2120 nM | 313 nM | – | – | – | –
5 | C#Cc1cccc(Nc2ncnc3cc(OCCOC)c(OCCOC(=O)CCCCC[N+]4=C(/C=C/C=C/C=C/C=C5/N(CCCC)c6ccccc6C5(C)C)C(C)(C)c5cc(C(F)(F)F)ccc54)cc23)c1 | 230 nM | 541 nM | 813 nM | 356 nM | – | 205 nM | – | –
6 | C#Cc1cccc(Nc2ncnc3cc(OCCOC)c(OCCOC(=O)CCCCC[N+]4=C(/C=C/C=C/C=C/C=C5/N(CCCC)c6ccccc6C5(C)C)C(C)(C)c5ccccc54)cc23)c1 | 631 nM | 2000 nM | 570 nM | < 125 nM | – | – | 33.2 µM | –
7 | CC(=O)O[C@H]1C(=O)[C@@]2(C)[C@H]([C@H](OC(=O)c3ccccc3)[C@]3(O)C[C@H](OC(=O)[C@H](O)[C@@H](NC(=O)c4ccccc4)c4ccccc4)C(C)=C1C3(C)C)[C@]1(OC(C)=O)CO[C@@H]1C[C@@H]2O [PACLITAXEL] | < 1 nM | 5 nM | < 1 nM | < 25 nM | – | – | – | –

Further lines, with some results ahead:

Row | IC50 (A549 [1]) | IC50 (NCI-H1299) | IC50 (NCI-H460) | IC50 (MDA-MB-231) | Ratio IC50 [2] | IC50 [3] | SMILES | IC50 (MCF-10A) | Ratio IC50 (A549 [4])
8 | 9040 nM | 6960 nM | 15200 nM | 4310 nM | – | – | C#Cc1cccc(Nc2ncnc3cc(OCCOC)c(OCCOC(=O)CCCCC[N+]4=C(/C=C/C5=C(Cl)C(=C/C=C6/N(CCCCCC(=O)O)c7ccccc7C6(C)C)/CCC5)C(C)(C)c5ccccc54)cc23)c1 | – | –
9 | 2380 nM | 1550 nM | 816 nM | 3360 nM | – | – | C#Cc1cccc(Nc2ncnc3cc(OCCOC)c(OCCOC(=O)CCCCC[N+]4=C(/C=C/C5=C(Cl)C(=C/C=C6/N(CCCCCC(=O)O)c7ccc(C)cc7C6(C)C)/CCC5)C(C)(C)c5cc(C)ccc54)cc23)c1 | – | –
10 | 455 nM | 110 nM | 217 nM | < 125 nM | – | – | C#Cc1cccc(Nc2ncnc3cc(OCCOC)c(OCCOC(=O)CCCCC[N+]4=C(/C=C/C=C/C=C/C=C5/N(CCCC)c6ccc(OC)cc6C5(C)C)C(C)(C)c5cc(OC)ccc54)cc23)c1 | – | –
11 | 2100 nM | 4150 nM | 5650 nM | 6210 nM | – | – | C#Cc1cccc(Nc2ncnc3cc(OCCOC)c(OCCOC(=O)CCCCC[N+]4=C(/C=C/C=C/C=C/C=C5/N(CCCCCC(=O)O)c6ccc(C)cc6C5(C)C)C(C)(C)c5cc(C)ccc54)cc23)c1 | – | –
12 | 2080 nM | 246 nM | 855 nM | 833 nM | – | – | C#Cc1cccc(Nc2ncnc3cc(OCCOC)c(OCCOC(=O)CCCCC[N+]4=C(/C=C/C=C/C=C/C=C5/N(CCCC)c6ccc(OC)cc6C5(C)C)C(C)(C)c5cc(Br)ccc54)cc23)c1 | – | –
13 | 678 nM | 1350 nM | 827 nM | 531 nM | – | – | C#Cc1cccc(Nc2ncnc3cc(OCCOC)c(OCCOC(=O)CCCCC[N+]4=C(/C=C/C=C/C=C/C=C5/N(CCCC)c6ccc(OC)cc6C5(C)C)C(C)(C)c5cc(C)ccc54)cc23)c1 | – | –
14 | 388 nM | 378 nM | 549 nM | 306 nM | – | – | C#Cc1cccc(Nc2ncnc3cc(OCCOC)c(OCCOC(=O)CCCCC[N+]4=C(/C=C/C=C/C=C/C=C5/N(CCCC)c6ccc(OC)cc6C5(C)C)C(C)(C)c5ccccc54)cc23)c1 | – | –
15 | 1960 nM | 2210 nM | 2700 nM | 4230 nM | – | – | C#Cc1cccc(Nc2ncnc3cc(OCCOC)c(OCCOC(=O)CCCCC[N+]4=C(/C=C/C5=C(Cl)C(=C/C=C6/N(CCCCCC(=O)O)c7ccc(OC)cc7C6(C)C)/CCC5)C(C)(C)c5cc(OC)ccc54)cc23)c1 | – | –
16 | 2590 nM | 14900 nM | 5120 nM | 3300 nM | – | – | C#Cc1cccc(Nc2ncnc3cc(OCCOC)c(OCCOC(=O)CCCCC[N+]4=C(/C=C/C=C/C=C/C=C5/N(CCCCCC(=O)O)c6ccc(OC)cc6C5(C)C)C(C)(C)c5cc(OC)ccc54)cc23)c1 | – | –
17 | 7330 nM | 17600 nM | 13700 nM | 609 nM | – | – | C#Cc1cccc(Nc2ncnc3cc(OCCOC)c(OCCOC(=O)CCCCC[N+]4=C(/C=C/C5=C(Cl)C(=C/C=C6/N(CCCCCC(=O)O)c7ccc(Br)cc7C6(C)C)/CCC5)C(C)(C)c5cc(Br)ccc54)cc23)c1 | – | –
18 | 3940 nM | 680 nM | 2470 nM | < 125 nM | – | – | C#Cc1cccc(Nc2ncnc3cc(OCCOC)c(OCCOC(=O)CCCCC[N+]4=C(/C=C/C=C/C=C/C=C5/N(CCCC)c6ccccc6C5(C)C)C(C)(C)c5cc(OC)ccc54)cc23)c1 | – | –
